The record followed here is US20260125346A1, “Isoquinolinone Derivatives and 4H-Quinolizinone Derivatives and Pharmaceutical Compositions Thereof for the Treatment of Disease” (BeOne Medicines I GmbH, priority 2023, published 2026).

In general, IC50 refers to the concentration that gives 50% inhibition.

Bounds are passed on as bounds.

Test [1] concerns the target PI3Kα (p110[H1047R]/p85) kinase (Homo sapiens, UniProt P42336, H1047R). Briefly: PI3Kα (p110[H1047R]/p85) kinase ADP-Glo Assay. Format: biochemical. The conditions noted are these: 25 uM ATP; for selectivity: WT/H1047R: ADP-Glo Assay IC50 ratio. In a few lines: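 PI3Kα H1047R/p85 pre-incubated 30 min at room temperature with PI(4,5)P2:PS substrate ([…]) and compound ([…]) in HEPES pH 7.5 buffer with MgCl2; ATP ([…]) then added for 120 min. ADP quantified by ADP-Glo luminescence; IC50 from four-parameter logistic fit.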
(In general: In ADP-Glo the light output rises with the ADP produced.)

Test [2] deals with PI3Kα H1047R mutated cell line T-47D. Kind of test: Phospho-AKT (Ser473) Inhibition Assay (HTRF), T-47D. Type of test: cell-based. The conditions noted are these: for IC50: Homo sapiens, T47D, T-47D, 1 hour treatment, read-out: p-AKT Inhibition assay (S473) IC50 T-47D; for Selectivity: SK-BR-3/T-47D (p-AKT): p-AKT (S473) IC50 ratio. In outline: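 Cells seeded overnight in insulin-supplemented MEM, then treated 1 h with 11-point 1:3 compound dilutions (10 μM to 0.1 nM final, 0.1% DMSO). Lysates assayed for phospho-AKT Ser473 by HTRF; IC50 from 4-parameter logistic fit, normalised to DMSO (max) and 10 μM GDC0077 (min).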
For orientation: In TR-FRET formats the signal depends on donor and acceptor labels being close together.

Chain of PI3Kα (p110[H1047R]/p85) kinase (P42336 whole entry H1047R): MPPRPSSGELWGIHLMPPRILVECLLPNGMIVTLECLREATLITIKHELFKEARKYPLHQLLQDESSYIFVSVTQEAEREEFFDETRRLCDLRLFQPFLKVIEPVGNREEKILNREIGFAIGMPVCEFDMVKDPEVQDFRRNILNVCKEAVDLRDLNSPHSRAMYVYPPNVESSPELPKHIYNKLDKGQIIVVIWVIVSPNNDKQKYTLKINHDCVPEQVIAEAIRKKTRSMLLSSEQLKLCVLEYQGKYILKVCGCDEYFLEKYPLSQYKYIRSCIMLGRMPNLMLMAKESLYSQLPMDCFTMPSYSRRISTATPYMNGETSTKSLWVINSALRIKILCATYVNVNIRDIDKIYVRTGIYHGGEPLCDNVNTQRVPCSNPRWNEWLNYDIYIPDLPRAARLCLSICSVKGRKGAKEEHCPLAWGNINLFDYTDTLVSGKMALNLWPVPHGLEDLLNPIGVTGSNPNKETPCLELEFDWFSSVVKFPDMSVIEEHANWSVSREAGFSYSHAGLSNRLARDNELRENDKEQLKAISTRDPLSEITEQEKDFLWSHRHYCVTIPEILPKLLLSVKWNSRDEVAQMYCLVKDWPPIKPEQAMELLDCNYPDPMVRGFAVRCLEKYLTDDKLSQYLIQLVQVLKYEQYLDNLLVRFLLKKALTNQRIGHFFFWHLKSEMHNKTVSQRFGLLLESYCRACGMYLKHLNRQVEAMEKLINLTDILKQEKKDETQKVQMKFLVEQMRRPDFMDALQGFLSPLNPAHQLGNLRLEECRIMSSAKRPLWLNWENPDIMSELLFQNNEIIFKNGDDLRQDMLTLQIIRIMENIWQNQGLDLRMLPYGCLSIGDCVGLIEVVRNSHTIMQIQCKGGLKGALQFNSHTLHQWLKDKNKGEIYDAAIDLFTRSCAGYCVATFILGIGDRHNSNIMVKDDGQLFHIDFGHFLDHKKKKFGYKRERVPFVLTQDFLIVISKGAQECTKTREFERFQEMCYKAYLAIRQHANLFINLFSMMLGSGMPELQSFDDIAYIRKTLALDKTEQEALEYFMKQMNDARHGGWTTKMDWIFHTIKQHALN
Chain of PI3Kα (p110[H1047R]/p85) kinase (P27986 whole entry partner): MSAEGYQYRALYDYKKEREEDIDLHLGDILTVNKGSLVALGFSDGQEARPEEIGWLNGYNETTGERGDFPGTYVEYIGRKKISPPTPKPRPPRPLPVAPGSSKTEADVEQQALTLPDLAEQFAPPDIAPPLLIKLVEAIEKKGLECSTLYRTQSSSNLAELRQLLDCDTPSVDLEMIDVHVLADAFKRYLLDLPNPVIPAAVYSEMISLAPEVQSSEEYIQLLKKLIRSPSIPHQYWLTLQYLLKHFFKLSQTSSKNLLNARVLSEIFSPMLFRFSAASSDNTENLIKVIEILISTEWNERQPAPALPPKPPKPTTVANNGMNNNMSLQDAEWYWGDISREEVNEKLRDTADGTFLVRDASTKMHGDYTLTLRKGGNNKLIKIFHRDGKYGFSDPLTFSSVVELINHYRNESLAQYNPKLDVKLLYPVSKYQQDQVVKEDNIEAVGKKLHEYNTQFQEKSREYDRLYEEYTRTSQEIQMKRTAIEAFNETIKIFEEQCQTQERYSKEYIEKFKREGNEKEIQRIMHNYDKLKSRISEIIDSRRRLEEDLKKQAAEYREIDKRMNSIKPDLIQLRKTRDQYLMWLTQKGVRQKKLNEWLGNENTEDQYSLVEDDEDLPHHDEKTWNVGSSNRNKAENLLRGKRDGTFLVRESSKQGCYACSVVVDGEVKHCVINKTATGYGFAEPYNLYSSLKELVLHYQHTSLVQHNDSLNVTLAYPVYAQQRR

With `Cc1cc(C(C)Nc2ccccc2C(=O)O)c2cc(-c3ccc(C(C)(C)O)nc3)n(C)c(=O)c2c1` (centres unmarked) [Example 55, 2-((1-(3-(6-(2-hydroxypropan-2-yl)pyridin-3-yl)-2,7-dimethyl-1-oxo-1,2-dihydroisoquinolin-5-yl)ethyl)amino)benzoic acid], in test [1], half-maximal inhibition (IC50) was put at 725 nM and the “selectivity: WT/H1047R” value is reported as 35.9. In addition, in test [2], the IC50 turned out to be 1560 nM and the “Selectivity: SK-BR-3/T-47D (p-AKT)” value was over 6.4.
As to `Cc1cc([C@@H](C)Nc2ccccc2C(=O)O)c2cc(-c3ccc(C(C)(C)O)nc3)n(C)c(=O)c2c1` [Example 56, (R)-2-((1-(3-(6-(2-hydroxypropan-2-yl)pyridin-3-yl)-2,7-dimethyl-1-oxo-1,2-dihydroisoquinolin-5-yl)ethyl)amino)benzoic acid], in test [1], the half-inhibitory concentration (IC50) was 1050 nM and the “selectivity: WT/H1047R” value is 16.3. Also, in test [2], the IC50 came out at 512 nM and the “Selectivity: SK-BR-3/T-47D (p-AKT)” value is on record as over 19.55.
As for `Cc1cc([C@H](C)Nc2ccccc2C(=O)O)c2cc(-c3ccc(C(C)(C)O)nc3)n(C)c(=O)c2c1` [Example 57, (S)-2-((1-(3-(6-(2-hydroxypropan-2-yl)pyridin-3-yl)-2,7-dimethyl-1-oxo-1,2-dihydroisoquinolin-5-yl)ethyl)amino)benzoic acid], in test [1], the concentration for half-maximal inhibition (IC50) is over 100000 nM and the “selectivity: WT/H1047R” value is given as under 0.9. Besides, the 50% inhibitory concentration (IC50) in test [2] was over 10000 nM.
As to `COc1ncc(-c2cc3c(C(C)Nc4ccccc4C(=O)O)cc(C)cc3c(=O)n2C)cc1F` (centres unmarked) [Example 58, 2-((1-(3-(5-fluoro-6-methoxypyridin-3-yl)-2,7-dimethyl-1-oxo-1,2-dihydroisoquinolin-5-yl)ethyl)amino)benzoic acid], in test [1], the concentration for half-maximal inhibition (IC50) was determined as 336 nM and the “selectivity: WT/H1047R” value amounted to 29.7. In addition, in test [2], the concentration for half-maximal inhibition (IC50) worked out at 220 nM and the “Selectivity: SK-BR-3/T-47D (p-AKT)” value stood at 14.3.
On to `COc1ncc(-c2cc3c([C@@H](C)Nc4ccccc4C(=O)O)cc(C)cc3c(=O)n2C)cc1F` [Example 59, (R)-2-((1-(3-(5-fluoro-6-methoxypyridin-3-yl)-2,7-dimethyl-1-oxo-1,2-dihydroisoquinolin-5-yl)ethyl)amino)benzoic acid], for which, in test [1], the IC50 was determined as 281 nM and the “selectivity: WT/H1047R” value came out at 15.3. Besides, in test [2], the concentration for half-maximal inhibition (IC50) was determined as 81.5 nM and the “Selectivity: SK-BR-3/T-47D (p-AKT)” value was over 123.
On to `Cc1cc(C(C)Nc2ccccc2C(=O)O)c2cc(-c3cncnc3)n(C)c(=O)c2c1` (centres unmarked) [Example 61, 2-((1-(2,7-dimethyl-1-oxo-3-(pyrimidin-5-yl)-1,2-dihydroisoquinolin-5-yl)ethyl)amino)benzoic acid], for which, in test [1], the concentration for half-maximal inhibition (IC50) was 790 nM and the “selectivity: WT/H1047R” value worked out at 24.6. For the same compound, in test [2], the concentration for half-maximal inhibition (IC50) came to 1400 nM and the “Selectivity: SK-BR-3/T-47D (p-AKT)” value is over 7.15.
Taken in the same sequence, the figures for `Cc1cc(C(C)Nc2ccccc2C(=O)O)c2cc(-c3ccc(C4(O)CC4)cc3)n(C)c(=O)c2c1` (centres unmarked) [Example 62, 2-((1-(3-(4-(1-hydroxycyclopropyl)phenyl)-2,7-dimethyl-1-oxo-1,2-dihydroisoquinolin-5-yl)ethyl)amino)benzoic acid] were 230 nM, 20.6, 130 nM and 22.9.
For the compound `Cc1cc(C(C)Nc2ccccc2C(=O)O)c2cc(-c3ccc(F)cc3)n(CC#N)c(=O)c2c1` (centres unmarked) [Example 63, 2-((1-(2-(cyanomethyl)-3-(4-fluorophenyl)-7-methyl-1-oxo-1,2-dihydroisoquinolin-5-yl)ethyl)amino)benzoic acid], in test [1], the concentration for half-maximal inhibition (IC50) turned out to be 92 nM and the “selectivity: WT/H1047R” value is on record as 66.8. For the same compound, in test [2], the IC50 was determined as 57.3 nM and the “Selectivity: SK-BR-3/T-47D (p-AKT)” value was determined as 83.3.
For `Cc1cc([C@@H](C)Nc2ccccc2C(=O)O)c2cc(-c3ccc(F)cc3)n(CC#N)c(=O)c2c1` [Example 64, (R)-2-((1-(2-(cyanomethyl)-3-(4-fluorophenyl)-7-methyl-1-oxo-1,2-dihydroisoquinolin-5-yl)ethyl)amino)benzoic acid], in that order: 113 nM, 21.9, 32.4 nM and over 308.
In the case of `Cc1cc(C(C)Nc2ccccc2C(=O)O)c2cc(-c3cnc(C(C)(C)O)nc3)n(C)c(=O)c2c1` (centres unmarked) [Example 66, 2-((1-(3-(2-(2-hydroxypropan-2-yl)pyrimidin-5-yl)-2,7-dimethyl-1-oxo-1,2-dihydroisoquinolin-5-yl)ethyl)amino)benzoic acid], in test [1], the midpoint of inhibition, the IC50, lay at 1110 nM and the “selectivity: WT/H1047R” value was determined as 19.3. For the same compound, in test [2], the IC50 was 2800 nM and the “Selectivity: SK-BR-3/T-47D (p-AKT)” value was over 3.57.
Regarding `Cc1cc([C@@H](C)Nc2ccccc2C(=O)O)c2cc(-c3cnc(C(C)(C)O)nc3)n(C)c(=O)c2c1` [Example 67, (R)-2-((1-(3-(2-(2-hydroxypropan-2-yl)pyrimidin-5-yl)-2,7-dimethyl-1-oxo-1,2-dihydroisoquinolin-5-yl)ethyl)amino)benzoic acid], in test [1], the concentration for half-maximal inhibition (IC50) turned out to be 1210 nM and the “selectivity: WT/H1047R” value is listed as 11.2. Besides, in test [2], the IC50 was 1540 nM and the “Selectivity: SK-BR-3/T-47D (p-AKT)” value is listed as over 6.51.
Taken in the same sequence, the figures for `Cc1cc(C(C)Nc2ccccc2C(=O)O)c2cc(-c3ccc(F)cc3)n(C3CCOC3)c(=O)c2c1` (centres unmarked) [Example 69, 2-((1-(3-(4-fluorophenyl)-7-methyl-1-oxo-2-(tetrahydrofuran-3-yl)-1,2-dihydroisoquinolin-5-yl)ethyl)amino)benzoic acid] were 416 nM, 45.3, 103 nM and over 97.
With `Cc1cc(C(C)Nc2ccccc2C(=O)O)c2cc(-c3ccc4c(c3)CN(C)C4=O)n(C)c(=O)c2c1` (centres unmarked) [Example 70, 2-((1-(2,7-dimethyl-3-(2-methyl-1-oxoisoindolin-5-yl)-1-oxo-1,2-dihydroisoquinolin-5-yl)ethyl)amino)benzoic acid], in test [1], half-maximal inhibition (IC50) was put at 872 nM and the “selectivity: WT/H1047R” value is on record as 24.2. For the same compound, in test [2], the concentration for half-maximal inhibition (IC50) turned out to be 1100 nM and the “Selectivity: SK-BR-3/T-47D (p-AKT)” value is reported as over 9.11.
`Cc1cc(C(C)Nc2ccccc2C(=O)O)c2cc(-c3ccc(F)cc3)n(-c3nccs3)c(=O)c2c1` (centres unmarked) [Example 71, 2-((1-(3-(4-fluorophenyl)-7-methyl-1-oxo-2-(thiazol-2-yl)-1,2-dihydroisoquinolin-5-yl)ethyl)amino)benzoic acid]: in test [1], the IC50 is 312 nM and the “selectivity: WT/H1047R” value came out at 45.7. In test [2], the 50% inhibitory concentration (IC50) stood at 102 nM and the “Selectivity: SK-BR-3/T-47D (p-AKT)” value is listed as 55.0.
Regarding `Cc1cc(C(C)Nc2ccccc2C(=O)O)c2cc(-c3ccc(N4CCC(C)(O)CC4)nc3)n(C)c(=O)c2c1` (centres unmarked) [Example 72, 2-((1-(3-(6-(4-hydroxy-4-methylpiperidin-1-yl)pyridin-3-yl)-2,7-dimethyl-1-oxo-1,2-dihydroisoquinolin-5-yl)ethyl)amino)benzoic acid], in test [1], half-maximal inhibition (IC50) required 1070 nM and the “selectivity: WT/H1047R” value is on record as 19.2. Further, in test [2], the IC50 was 633 nM and the “Selectivity: SK-BR-3/T-47D (p-AKT)” value is over 15.79.
